Measured values taken from patent publication US10770169B2, “Method of providing a treatment to a subject based on a dynamic pathway map” (THE REGENTS OF THE UNIVERSITY OF CALIFORNIA, priority 2010, dated 2020).

How the values were obtained:
[1] = tested on: luminal, basal, claudin-low and ERBB2AMP breast cancer cell lines; assay: Associations of clinically relevant subtypes and response (non-parametric ANOVA or t-test on GI50 ranks); assay type: cell-based, human; conditions: Table 6; most sensitive subtype, FDR p<0.20
Text: A central premise of this study is that associations between responses and molecular subtypes observed in preclinical cell line analyses will be recapitulated in the clinic in instances where the predictive molecular features in the cell lines are mirrored in human tumors. We established response-subtype associations by using non-parametric ANOVAs to compare […] values across transcriptional and genomics subtypes.
Differences between GI50s of the groups were compared with a non-parametric ANOVA or t-test, as appropriate, on the ranks. We combined the p-values for the three sets of tests and used false discovery rate (FDR) to correct for multiple testing. For the three-sample test, we performed a post-hoc analysis on the compounds with a significant class effect by comparing each group to all others to determine which group was most sensitive. The p-values for the post-hoc test were FDR-corrected together. In all cases, FDR p<0.20 was deemed significant. […] Analyses were performed in R.

[2] = tested on: panel of 55 breast cancer cell lines; assay: Cell growth inhibition assay (Cell Titer Glo, 72 h, 9 doses; GI50, TGI, LC50); assay type: cell-based, human; conditions: value is the negative log10 of mol/L
[3] = AU565 cell line, censored GI50 values
[4] = HCC1187 cell line, censored GI50 values
[5] = HCC1500 cell line, censored GI50 values
[6] = HCC1954 cell line, censored GI50 values

## COc1ncc(-c2ccc3nccc(-c4ccnnc4)c3c2)cc1NS(=O)(=O)c1ccc(F)cc1F [GSK2126458]
[1]
  Subtype specificity: Luminal/ERBB2AMP

## O=C(CCCCCCC(=O)Nc1ccccc1)NO [Vorinostat]
[1]
  Subtype specificity: Luminal

## ICRF-193
[2]; [3]
  GI50: 6.14
[2]; HCC38 cell line, censored GI50 values
  GI50: 6.54
[2]; [4]
  GI50: 6.05
[2]; [5]
  GI50: 4.66
[2]; [6]
  GI50: 4.82
[2]; HCC2185 cell line, censored GI50 values
  GI50: 5.69
[2]; SKBR3 cell line, censored GI50 values
  GI50: 5.22
[2]; SUM149PT cell line, censored GI50 values
  GI50: 4.75
[2]; SUM159PT cell line, censored GI50 values
  GI50: 6.38
[2]; SUM1315MO2 cell line, censored GI50 values
  GI50: 6.21
[2]; UACC812 cell line, censored GI50 values
  GI50: 4.66
[2]; ZR75B cell line, censored GI50 values
  GI50: 6.60
[2]; ZR751 cell line, censored GI50 values
  GI50: 6.07
[2]; cell line AU565
  GI50: 6.14
[2]; cell line BT20
  GI50: 4.38
[2]; cell line BT474
  GI50: 4.30
[2]; cell line CAMA1
  GI50: 4.30
[2]; cell line HCC38
  GI50: 6.54
[2]; cell line HCC1143
  GI50: 4.30
[2]; cell line HCC1187
  GI50: 6.05
[2]; cell line HCC1428
  GI50: 4.38
[2]; cell line HCC1500
  GI50: 4.66
[2]; cell line HCC1806
  GI50: 4.30
[2]; cell line HCC1937
  GI50: 4.30
[2]; cell line HCC1954
  GI50: 4.82
[2]; cell line HCC2185
  GI50: 5.69
[2]; cell line MDAMB436
  GI50: 4.30
[2]; cell line MDAMB453
  GI50: 4.45
[2]; cell line SKBR3
  GI50: 5.22
[2]; cell line SUM149PT
  GI50: 4.75
[2]; cell line SUM159PT
  GI50: 6.38
[2]; cell line SUM1315MO
  GI50: 6.21
[2]; cell line UACC812
  GI50: 4.66
[2]; cell line ZR75B
  GI50: 6.60
[2]; cell line ZR751
  GI50: 6.07

## Oxamflatin
[2]; [3]
  GI50: 6.19
[2]; BT474 cell line, censored GI50 values
  GI50: 6.57
[2]; BT483 cell line, censored GI50 values
  GI50: 6.15
[2]; CAMA1 cell line, censored GI50 values
  GI50: 6.27
[2]; HCC1143 cell line, censored GI50 values
  GI50: 6.28
[2]; [4]
  GI50: 6.19
[2]; HCC1395 cell line, censored GI50 values
  GI50: 5.64
[2]; HCC1419 cell line, censored GI50 values
  GI50: 5.88
[2]; HCC1428 cell line, censored GI50 values
  GI50: 6.33
[2]; [5]
  GI50: 5.98
[2]; HCC1806 cell line, censored GI50 values
  GI50: 6.16
[2]; HCC1937 cell line, censored GI50 values
  GI50: 5.84
[2]; [6]
  GI50: 5.81
[2]; cell line AU565
  GI50: 6.19
[2]; cell line BT474
  GI50: 6.57
[2]; cell line BT483
  GI50: 6.15
[2]; cell line CAMA1
  GI50: 6.27
[2]; cell line HCC38
  GI50: 6.77
[2]; cell line HCC70
  GI50: 6.35
[2]; cell line HCC1143
  GI50: 6.28
[2]; cell line HCC1187
  GI50: 6.19
[2]; cell line HCC1395
  GI50: 5.64
[2]; cell line HCC1419
  GI50: 5.88
[2]; cell line HCC1428
  GI50: 6.33
[2]; cell line HCC1500
  GI50: 5.98
[2]; cell line HCC1806
  GI50: 6.16
[2]; cell line HCC1937
  GI50: 5.84
[2]; cell line HCC1954
  GI50: 5.81
[2]; cell line HCC2185
  GI50: 6.46
[2]; cell line HCC3153
  GI50: 5.82
[2]; cell line LY2
  GI50: 5.88
[2]; cell line MDAMB134V
  GI50: 6.18
[2]; cell line MDAMB175V
  GI50: 5.41
[2]; cell line MDAMB361
  GI50: 6.15
[2]; cell line MDAMB415
  GI50: 6.14
[2]; cell line MDAMB453
  GI50: 6.56
[2]; cell line MDAMB468
  GI50: 5.57
[2]; cell line SKBR3
  GI50: 5.96
[2]; cell line SUM52PE
  GI50: 6.22
[2]; cell line SUM149PT
  GI50: 6.17
[2]; cell line SUM159PT
  GI50: 6.50
[2]; cell line SUM185PE
  GI50: 6.51
[2]; cell line SUM225CWN
  GI50: 6.07
[2]; cell line SUM1315MO
  GI50: 5.64
[2]; cell line T47D
  GI50: 6.06
[2]; cell line UACC812
  GI50: 5.71
[2]; cell line ZR75B
  GI50: 6.41
